Patent US11459327B1, “Cycloalkyl and hetero-cycloalkyl inhibitors, preparation methods therefor, and use thereof” (Suzhou Zelgen Biopharmaceuticals Co., Ltd., priority 2019, dated 2022)

The compounds below were run on NCI-H358(KRAS^G12C mutation) cells (assay: Cell assay of antiproliferative activity (Celltiter-Glo, 5 days) against NCI-H358 cells). Details: 5 days incubation.
Format: cell-based
Method: Cell assay of antiproliferative activity of compounds against NCI-H358(KRAS^G12C mutation) and A549(KRAS^G12S mutation) cells.
40 μl phosphate buffer was added to the outer wells of the 384 microplate, and 40 μl cell suspension to be tested was added to the other wells. Then the microplate was incubated in a carbon dioxide incubator overnight.
The compounds to be tested were gradiently diluted, each compound was performed 10 concentration gradients (diluted from 50 μM to 0.003 μM) and added 100 nL to the corresponding wells in the microplate. After addition, 40 μl of phosphate buffer was added to each well in rows A and P and columns 1 and 24, and then the microplate was incubated in a carbon dioxide incubator for 5 days.
20 μL of Promega Celltiter-Glo reagent was added to each well of the microplate, and then the luminescence signal was stabilized by oscillating at room temperature for 10 min. Then PekinElmer Envision multi-label analyzer was used to read.
Finally, GraphPad Prism software was used to calculate the IC50 value of the compound and the fitting curve was drawn.
Anti-proliferative activity of the compounds of the present invention against NCI-H358(KRAS^G12C mutation) and A549(KRAS^G12S mutation) cells were shown in Table 1.

Row | Compound | IC50 [nM]
1 | C=C(F)C(=O)N1CCN(c2nc(OCC3(C(C)N(C)C)CC3)nc3c2CCN(c2cccc4cccc(Cl)c24)C3)C[C@@H]1CC#N (stereo partly drawn) [Example 47A, 2-((2S)-4-(7-(8-chloronaphthalen-1-yl)-2-((1-(1-(dimethylamino)ethyl)cyclopropyl)methoxy)-5,6,7,8-tetrahydropyrido[3,4-d]pyrimidin-4-yl)-1-(2-fluoroacroloyl)piperazin-2-yl) acetonitrile] | 100
2 | C=C(F)C(=O)N1CCN(c2nc(OCC3(C(C)N(C)C)CC3)nc3c2CCN(c2cccc4cccc(Cl)c24)C3)C[C@@H]1CC#N (stereo partly drawn) [Example 47B, 2-((2S)-4-(7-(8-chloronaphthalen-1-yl)-2-((1-(1-(dimethylamino)ethyl)cyclopropyl)methoxy)-5,6,7,8-tetrahydropyrido[3,4-d]pyrimidin-4-yl)-1-(2-fluoroacroloyl)piperazin-2-yl) acetonitrile] | 71
3 | C=C(F)C(=O)N1CCN(c2nc(OCC3(C(C)N(C)C)CC3)nc3c2CCN(c2cccc4cccc(Cl)c24)C3)C[C@@H]1CC#N (stereo partly drawn) [Example 53A, 2-((2S)-4-(7-(8-chloronaphthalen-1-yl)-2-(1-(1-((dimethylamino)ethyl)cyclopropyl)methoxy)-5,6,7,8-tetrahydropyrido[3,4-d]pyrimidin-4-yl)-1-(2-fluoroacroloyl)piperazin-2-yl) acetonitrile] | 1400
4 | C=C(F)C(=O)N1CCN(c2nc(OCC3(C(C)N(C)C)CC3)nc3c2CCN(c2cccc4cccc(Cl)c24)C3)C[C@@H]1CC#N (stereo partly drawn) [Example 53B, 2-((2S)-4-(7-(8-chloronaphthalen-1-yl)-2-(1-(1-((dimethylamino)ethyl)cyclopropyl)methoxy)-5,6,7,8-tetrahydropyrido[3,4-d]pyrimidin-4-yl)-1-(2-fluoroacroloyl)piperazin-2-yl) acetonitrile] | 1300

Same assay, conditions: Homo sapiens, NCI-H358, 120 h, 5 days incubation

Row | Compound | IC50 [nM]
5 | C=C(F)C(=O)N1CCN(c2nc(OCC3(CN4CCC4)CC3)nc3c2CCN(c2cccc4cccc(Cl)c24)C3)C[C@@H]1CC#N [Example 48] | 65
6 | CC#CC(=O)N1CCN(c2nc(OCC3(CN(C)C)CC3)nc3c2CCN(c2cccc4cccc(Cl)c24)C3)C[C@@H]1CC#N [Example 49, (S)-2-(1-(but-2-ynoyl)-4-(7-(8-chloronaphthalen-1-yl)-2-((1-((dimethylamino)methyl)cyclopropyl)methoxyl)-5,6,7,8-tetrahydropyrido[3,4-d]pyrimidin-4-yl)piperazin-2-yl) acetonitrile] | 43
7 | C=C(F)C(=O)N1CCN(c2nc(OCC3(CN(C)C(C)C)CC3)nc3c2CCN(c2cccc4cccc(Cl)c24)C3)C[C@@H]1CC#N [Example 56, (S)-2-(4-(7-(8-chloronaphthalen-1-yl)-2-((1-((isopropyl(methyl)amino)methyl)cyclopropyl)methoxy)-5,6,7,8-tetrahydropyrido[3,4-d]pyrimidin-4-yl)-1-(2-fluoroacroloyl)piperazin-2-yl) acetonitrile] | 61
8 | C=C(F)C(=O)N1CCN(c2nc(OCC3(CN4CCC4)CC3)nc3c2CCN(c2cccc4ccc(F)c(Cl)c24)C3)C[C@@H]1CC#N [Example 58, (S)-2-(4-(2-((1-(azetidin-1-ylmethyl)cyclopropyl)methoxy)-7-(8-chloro-7-fluoronaphthalen-1-yl)-5,6,7,8-tetrahydropyrido[3,4-d]pyrimidin-4-yl)-1-(2-fluoroacroloyl)piperazin-2-yl) acetonitrile] | 65
9 | C=C(F)C(=O)N1CCN(c2nc(OCC3(CN(C)C(C)C)CC3)nc3c2CCN(c2cccc4ccc(F)c(Cl)c24)C3)C[C@@H]1CC#N [Example 61, (S)-2-(4-(7-(8-chloro-7-fluoronaphthalen-1-yl)-2-((1-((isopropyl(methyl)amino)methyl)cyclopropyl)methoxy)-5,6,7,8-tetrahydropyrido [3,4-d]pyrimidin-4-yl)-1-(2-fluoroacroloyl)piperazin-2-yl) acetonitrile] | 110
10 | C=C(F)C(=O)N1CCN(c2nc(OCC3(CN(C)CC)CC3)nc3c2CCN(c2cccc4ccc(F)c(Cl)c24)C3)C[C@@H]1CC#N [Example 62, (S)-2-(4-(7-(8-chloro-7-fluoronaphthalen-1-yl)-2-((1-((ethyl(methyl)amino)methyl)cyclopropyl)methoxy)-5,6,7,8-tetrahydropyrido[3,4-d]pyrimidin-4-yl)-1-(2-fluoroacroloyl)piperazin-2-yl) acetonitrile] | 36

Results, then the compound that gave them:

Row | IC50 [nM] | Compound
11 | 300 | C=CC(=O)N1CCN(c2nc(OCC3(CN(C)C)CC3)nc3c2CCN(c2cccc4cccc(Cl)c24)C3)[C@@H](C)C1 [Example 50, (S)-1-(-4-(7-(8-chloronaphthalen-1-yl)-2-((1-((dimethylamino)methyl)cyclopropyl)methoxyl)-5,6,7,8-tetrahydropyrido[3,4-d]pyrimidin-4-yl)-3-methylpiperazin-1-yl)prop-2-ene-1-one]
12 | 540 | C=C(F)C(=O)N1CCN(c2nc(OCC3(CCN(C)C)CC3)nc3c2CCN(c2cccc4cccc(Cl)c24)C3)C[C@@H]1CC#N [Example 52, (S)-2-(4-(7-(8-chloronaphthalen-1-yl)-2-((1-(2-(dimethylamino)ethyl)cyclopropyl)methoxy)-5,6,7,8-tetrahydropyrido[3,4-d]pyrimidin-4-yl)-1-(2-fluoroacroloyl)piperazin-2-yl) acetonitrile]
13 | 47 | C=C(F)C(=O)N1CCN(c2nc(OCC3(CN(C)CC)CC3)nc3c2CCN(c2cccc4cccc(Cl)c24)C3)C[C@@H]1CC#N [Example 54, (S)-2-(4-(7-(8-chloronaphthalen-1-yl)-2-((1-((ethyl (methyl)amino)methyl)cyclopropyl)methoxy)-5,6,7,8-tetrahydropyrido[3,4-d]pyrimidin-4-yl)-1-(2-fluoroacroloyl)piperazin-2-yl) acetonitrile]
14 | 870 | C=C(F)C(=O)N1CCN(c2nc(OCCN(C)C34CC(C3)C4)nc3c2CCN(c2cccc4cccc(Cl)c24)C3)C[C@@H]1CC#N [Example 55]
15 | 1300 | C=C(F)C(=O)N1CCN(c2nc(OCC3(CS(C)(=O)=O)CC3)nc3c2CCN(c2cccc4cccc(Cl)c24)C3)C[C@@H]1CC#N [Example 57, (S)-2-(4-(7-(8-chloronaphthalen-1-yl)-2-((1-((methylsulfonyl)methyl)cyclopropyl)methoxy)-5,6,7,8-tetrahydropyrido[3,4-d]pyrimidin-4-yl)-1-(2-fluoroacroloyl)piperazin-2-yl) acetonitrile]
16 | 810 | C=C(F)C(=O)N1CCN(c2nc(OCC3(CN4CC(F)(F)C4)CC3)nc3c2CCN(c2cccc4ccc(F)c(Cl)c24)C3)C[C@@H]1CC#N [Example 59]
17 | 92 | C=C(F)C(=O)N1CCN(c2nc(OCC3(CN(CC)CC)CC3)nc3c2CCN(c2cccc4ccc(F)c(Cl)c24)C3)C[C@@H]1CC#N [Example 60, (S)-2-(4-(7-(8-chloro-7-fluoronaphthalen-1-yl)-2-((1-((diethylamino)methyl)cyclopropyl)methoxy)-5,6,7,8-tetrahydropyrido[3,4-d]pyrimidin-4-yl)-1-(2-fluoroacroloyl)piperazin-2-yl) acetonitrile]
18 | 7 | [2H]C([2H])([2H])N(CC1(COc2nc3c(c(N4CCN(C(=O)C(=C)F)[C@@H](CC#N)C4)n2)CCN(c2cccc4ccc(F)c(Cl)c24)C3)CC1)C([2H])([2H])[2H] [Example 63]
